This is an account of results in BindingDB's records for patent US11858959 (Ardelyx, 2024).

The test deals with T1, 11-beta-hydroxysteroid dehydrogenase type 2 (Homo sapiens, UniProt P80365).
T1 sequence (P80365 whole entry): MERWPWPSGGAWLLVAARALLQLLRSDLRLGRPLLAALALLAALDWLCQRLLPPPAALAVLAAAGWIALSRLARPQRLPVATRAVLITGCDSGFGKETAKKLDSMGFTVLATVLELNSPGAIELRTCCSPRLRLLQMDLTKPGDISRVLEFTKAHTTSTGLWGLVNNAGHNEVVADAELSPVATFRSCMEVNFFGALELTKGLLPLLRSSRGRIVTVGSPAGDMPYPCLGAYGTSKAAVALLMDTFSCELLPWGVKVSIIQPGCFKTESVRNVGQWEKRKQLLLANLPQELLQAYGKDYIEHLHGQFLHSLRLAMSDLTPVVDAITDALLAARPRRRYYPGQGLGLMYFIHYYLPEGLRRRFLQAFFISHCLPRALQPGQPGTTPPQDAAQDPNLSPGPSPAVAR
The test is described as follows: HSD2 Activity. As for the experimental part: Human descending colon epithelial stem cells were cultured as 3D organoids in accordance with Sato et al Gastroenterology. 2011 November; 141(5): 1762-72. Organoids were dissociated using TrypLE Express (life technologies) and plated on 96-well transwells (corning) in supplemented basal media (SBM-advanced DMEM/F12 containing 10 mM HEPES, 1:100 Glutamax, 1:100 penicillin/streptomycin, 1:100N2, 1:50 B27, 1 mM N-acetylcysteine, 10 nM [Leu15]-gastrin I) containing 100 ng/mL Wnt3A (W), 50 ng/mL EGF (E), 100 ng/mL Noggin (N), 500 ng/mL RSpondinl (R), 500 nM A83-01 (S) and 2.5 uM thiazovivin (T). Cultures were differentiated using SBM containing ENRA and 30 nM aldosterone on day 3, and cultures were used for assay on day 6 or 7. Compounds were diluted in DMSO and serial dilutions prepared by titrating in DMSO. Compounds were then diluted into DMEM/F12. Transwell plates containing descending colon cultures were washed twice with DMEM/F12 and compound was added to the apical compartment. Cells were incubated with test compound for 30 minutes at 37 C., 5% CO2 to equilibrate across the cell membrane. […] Cortisol levels were measured using a cortisol HTRF assay kit as described by the manufacturer (Cisbio). Concentration-response curves were then plotted and IC50 (and pIC50) values were determined using least squares non-linear regression.

In the case of `Cc1oc(=O)oc1COC(=O)[C@]1(C)[C@@H](OC(=O)CN(C)C)CC[C@@]2(C)[C@H]1CC[C@]1(C)[C@@H]2C(=O)C=C2[C@@H]3C[C@@](C)(C(=O)O)CC[C@]3(C)CC[C@]21C` [US11858959, Compound 290-2], the midpoint of inhibition, the IC50, lay at 251 nM.
